Measured values: publication PMC9300923 (Frontiers in Pharmacology, 2022)

B1: Streptolysin O (natural protein, UniProt P0C0I3 78-571, looked up)
chain: LAPKEMPLESAEKEEKKSEDKKKSEEDHTEEINDKIYSLNYNELEVLAKNGETIENFVPKEGVKKADKFIVIERKKKNINTTPVDISIIDSVTDRTYPAALQLANKGFTENKPDAVVTKRNPQKIHIDLPGMGDKATVEVNDPTYANVSTAIDNLVNQWHDNYSGGNTLPARTQYTESMVYSKSQIEAALNVNSKILDGTLGIDFKSISKGEKKVMIAAYKQIFYTVSANLPNNPADVFDKSVTFKELQRKGVSNEAPPLFVSNVAYGRTVFVKLETSSKSNDVEAAFSAALKGTDVKTNGKYSDILENSSFTAVVLGGDAAEHNKVVTKDFDVIRNVIKDNATFSRKNPAYPISYTSVFLKNNKIAGVNNRTEYVETTSTEYTSGKINLSHQGAYVAQYEILWDEINYDDKGKEVITKRRWDNNWYSKTSPFSTVIPLGANSRNIRIMARECTGLAWEWWRKVIDERDVKLSKEINVNISGSTLSPYGSITYK
notes: Streptolysin O of Group A Streptococcus (Streptococcus pyogenes), amplified from DNA of GAS strain M1; After the BamHI site the forward primer encodes LAPKEMP; The reverse primer runs to the natural stop codon (...YGSITYK-stop); Surmise: cloning into the BamHI/SacI sites of pET28a with the gene's own stop codon would give an N-terminal His6-thrombin site-T7 tag leader; also called SLO; SLO protein

Legend:
SLY (Suilysin) = SLY (Suilysin) (Streptococcus suis, UniProt Q55996); test: biochemical
Chain of SLY (Suilysin) (Q55996 28-497 limits assumed): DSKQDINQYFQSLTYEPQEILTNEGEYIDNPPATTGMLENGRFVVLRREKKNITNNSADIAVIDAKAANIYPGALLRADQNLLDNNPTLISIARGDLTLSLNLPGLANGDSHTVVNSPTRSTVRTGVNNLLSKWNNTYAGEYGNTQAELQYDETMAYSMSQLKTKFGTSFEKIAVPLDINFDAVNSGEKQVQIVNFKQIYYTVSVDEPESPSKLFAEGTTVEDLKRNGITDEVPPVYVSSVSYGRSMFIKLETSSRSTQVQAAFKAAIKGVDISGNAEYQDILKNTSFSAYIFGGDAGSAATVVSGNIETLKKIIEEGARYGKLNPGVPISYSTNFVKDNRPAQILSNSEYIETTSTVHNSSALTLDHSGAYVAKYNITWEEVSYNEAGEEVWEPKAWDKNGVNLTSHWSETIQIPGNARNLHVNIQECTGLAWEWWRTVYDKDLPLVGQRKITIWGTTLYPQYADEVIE

[1] = biological target: the molecule itself; test: SDS-PAGE without beta-mercaptoethanol + Western blot of oligomers; purified SLO incubated with or without luteolin at different concentrations, 37°C for 30 min; then 40°C for 10 min in 1x SDS-PAGE loading buffer without β-ME; blot with rabbit polyclonal anti-Streptolysin O; oligomer/monomer ratio by densitometry

Molecule	Kd (SLY (Suilysin))	binding result [1]
O=c1cc(-c2ccc(O)c(O)c2)oc2cc(O)cc(O)c12 [Luteolin]	554 nM	–
B1	–	binds
